Results as given in patent US9221795B2, “Phosphatidylinositol 3-kinase inhibitors” (Gilead Sciences, Inc., priority 2013, dated 2015).

What was measured:
[1] = Hepatocyte stability (parent drug disappearance in cryopreserved hepatocytes); type: in vitro ADME, human; details: human, cryopreserved human hepatocytes, human hepatocytes
Description: This assay was used to evaluate the metabolic stability of test articles (TA) following incubation in cryopreserved hepatocytes by monitoring parent drug disappearance via LC/MC. The TA was incubated with 1 million hepatocytes/mL at 2 μM substrate in duplicate. The incubation was carried out at 37° C. with 5% CO2 and saturating humidity. Samples were taken at 0, 1, 2, and 4 hours to monitor the disappearance of TA and a half-life (t1/2) was determined. Table 3 below summarizes the human hepatocyte t1/2 values (hours) collected in the Example.

basophils = test: Basophil activation in human whole blood (Flow2 CAST kit, CD63 flow cytometry); type: cell-based; details: Homo sapiens
Description: Effect on basophil activation was measured in human whole blood using the Flow2 CAST® kit (Buhlmann Laboratories AG, Baselstrasse, Switzerland) following the protocol provided by the manufacturer with minor modifications. Human whole blood was collected into K2-EDTA venipuncture tubes. Whole blood samples were treated with either DMSO (0.3% final) or a serial dilution of compounds in DMSO for 60 minutes at 37° C. Basophils were then activated either with anti-FcεRI mAb or with fMLP. To activate basophils using the anti-FcεRI mAb; 50 μL of whole blood was mixed with 110 μL of stimulation buffer (B-BAT-STB) and 20 μl of anti-FcεRI (B-BAT-STCON). To activate basophils with fMLP; 50 μL of whole blood was mixed with 80 μL of stimulation buffer (B-BAT-STB) and 50 μL of fMLP (B-CCR-FMLP). Stimulation buffer was used as a negative control. 20 μL of the staining reagent (combination of anti-human CD63-FITC and anti-human CCR3-PE mAbs) was then added to each tube. The tubes were mixed gently and incubated for 25 minutes at 37° C. Subsequently, erythrocytes were lysed and fixed by the addition of 2 mL of lysing solution (B-BAT-LYR) for 10 minutes at room temperature. Cells were pelleted by centrifugation at 1200 rpm for 10 minutes at room temperature in a swing-out rotor. Supernatant was aspirated and cell pellet resuspended in 400 μL of wash buffer. Flow cytometric analysis of the basophil activation was performed on a FC500MPL flow cytometer (Beckman Coulter Inc., Fullerton, Calif.). CCR3-staining and side scatter were applied to gate at least 200 basophils that expressed a high density of CCR3. The percent CD63 positive cells within the gated basophil population were determined in different treatment groups and normalized to the vehicle control (0.3% DMSO) with anti-FcεRI mAb of fMLP stimulus as 100%. Final compound concentration was adjusted to correct for dilution effect of added reagents. The EC50 values were calculated from the analysis of the dose-response curves to a four-parameter equation.

PI3Kδ = PI3Kδ (Homo sapiens (Human), UniProt O00329); test: Enzymatic activity of PI3K isoforms, TR-FRET assay (PI3Kδ); type: biochemical; details: 2× Km ATP, geometric mean if more than one value
Method in brief: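 Recombinant heterodimeric PI3Kβ or PI3Kδ (25-50 pM) was run with 2 μM PIP2 and 2× Km ATP (75-500 μM) at pH 7.4, for 30 min at 25° C. PIP3 formation was detected by TR-FRET displacement of labeled PIP3 from Eu-GRP-1. IC50 values in nM come from four-parameter fits, as geometric means.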

[2] = class symbol, 2 μM substrate, 37° C.
[3] = 2 μM substrate, 37° C., Table 3
[4] = class symbol, human whole blood, basophils activated with anti-FcεRI mAb or fMLP, percent CD63 positive cells
[5] = human whole blood, basophils activated with anti-FcεRI mAb or fMLP, percent CD63 positive cells, geometric mean

Chain of PI3Kδ (O00329 whole entry, canonical isoform): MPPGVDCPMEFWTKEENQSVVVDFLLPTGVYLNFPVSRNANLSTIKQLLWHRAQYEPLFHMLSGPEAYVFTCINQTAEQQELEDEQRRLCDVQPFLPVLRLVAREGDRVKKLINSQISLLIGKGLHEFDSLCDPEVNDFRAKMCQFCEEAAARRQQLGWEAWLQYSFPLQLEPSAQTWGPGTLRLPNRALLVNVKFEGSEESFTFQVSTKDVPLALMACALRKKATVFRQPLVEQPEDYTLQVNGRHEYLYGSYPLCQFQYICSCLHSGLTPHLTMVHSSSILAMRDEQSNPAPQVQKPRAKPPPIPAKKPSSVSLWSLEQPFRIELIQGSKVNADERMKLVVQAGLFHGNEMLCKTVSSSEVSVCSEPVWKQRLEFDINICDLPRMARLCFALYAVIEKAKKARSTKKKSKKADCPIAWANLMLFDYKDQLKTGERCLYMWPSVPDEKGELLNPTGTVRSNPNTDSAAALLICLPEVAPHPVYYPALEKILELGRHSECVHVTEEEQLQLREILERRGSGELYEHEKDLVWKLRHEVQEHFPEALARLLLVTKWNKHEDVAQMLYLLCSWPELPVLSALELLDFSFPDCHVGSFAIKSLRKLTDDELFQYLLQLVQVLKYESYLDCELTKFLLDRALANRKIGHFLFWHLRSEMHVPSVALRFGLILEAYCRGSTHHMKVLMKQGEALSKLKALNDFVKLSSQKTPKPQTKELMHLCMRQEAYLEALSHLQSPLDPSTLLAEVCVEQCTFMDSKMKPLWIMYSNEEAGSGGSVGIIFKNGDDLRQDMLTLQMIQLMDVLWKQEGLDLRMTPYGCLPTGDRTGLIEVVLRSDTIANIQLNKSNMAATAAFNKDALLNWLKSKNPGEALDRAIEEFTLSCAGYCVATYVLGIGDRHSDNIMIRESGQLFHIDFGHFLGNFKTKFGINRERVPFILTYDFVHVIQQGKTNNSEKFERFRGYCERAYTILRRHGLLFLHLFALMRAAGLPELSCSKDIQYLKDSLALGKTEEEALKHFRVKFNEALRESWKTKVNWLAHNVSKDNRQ
Chain of PI3Kδ (P27986 whole entry partner, canonical isoform): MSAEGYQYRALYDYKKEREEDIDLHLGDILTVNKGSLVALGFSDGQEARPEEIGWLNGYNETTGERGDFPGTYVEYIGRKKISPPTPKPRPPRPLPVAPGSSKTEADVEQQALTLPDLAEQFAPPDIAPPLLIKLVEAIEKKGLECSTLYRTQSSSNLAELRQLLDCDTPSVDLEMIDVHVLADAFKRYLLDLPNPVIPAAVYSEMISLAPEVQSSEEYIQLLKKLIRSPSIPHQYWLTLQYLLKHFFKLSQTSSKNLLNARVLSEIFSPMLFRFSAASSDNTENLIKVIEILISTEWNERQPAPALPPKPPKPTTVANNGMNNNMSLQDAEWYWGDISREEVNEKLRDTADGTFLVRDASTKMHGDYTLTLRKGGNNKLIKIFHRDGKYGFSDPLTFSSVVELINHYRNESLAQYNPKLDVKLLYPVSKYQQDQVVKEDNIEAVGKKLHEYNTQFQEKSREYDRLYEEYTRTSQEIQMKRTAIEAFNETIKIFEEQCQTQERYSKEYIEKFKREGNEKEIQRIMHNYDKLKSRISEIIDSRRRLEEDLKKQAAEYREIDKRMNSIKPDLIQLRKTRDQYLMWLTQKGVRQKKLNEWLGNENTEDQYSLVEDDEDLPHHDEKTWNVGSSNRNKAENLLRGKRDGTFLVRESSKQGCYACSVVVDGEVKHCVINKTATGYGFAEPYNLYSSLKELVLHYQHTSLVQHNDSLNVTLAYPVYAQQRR

| half-life at 2 μM [1, 2] | half-life at 2 μM [1, 3] | EC50 (basophils; [4]) | EC50 (basophils; [5]) | IC50 (PI3Kδ) | half-life at 2 μM ([1]; comparison Table 4) | EC50 (basophils; basophil activation in human whole blood, comparison Table 4) | Compound |
| --- | --- | --- | --- | --- | --- | --- | --- |
| 6 to 10 h | 9 h | 1 to 10 nM | 4 nM | 0.6 nM | – | – | N#Cc1c(N)nc(N)nc1N[C@H](c1nc2c(Cl)ccc(Cl)c2c(=O)n1-c1cccnc1)C1CC1 [Compound 28, (S)-2,4-diamino-6-(cyclopropyl(5,8-dichloro-4-oxo-3-(pyridin-3-yl)-3,4-dihydroquinazolin-2-yl)methylamino)pyrimidine-5-carbonitrile] |
| 6 to 10 h | 7 h | 1 to 10 nM | 7 nM | 5 nM | – | – | C[C@H](Nc1nc(N)nc(N)c1C#N)c1nc2cccc(Cl)c2c(=O)n1-c1cncc(C2CC2)c1 [Compound 19, (S)-2,4-diamino-6-(1-(5-chloro-3-(5-cyclopropylpyridin-3-yl)-4-oxo-3,4-dihydroquinazolin-2-yl)ethylamino)pyrimidine-5-carbonitrile] |
| > 10 h | > 10 h | 10 to 50 nM | 10 nM | 8 nM | – | – | N#Cc1c(N)nc(N)nc1N[C@@H](CC1CC1)c1nc2c(F)ccc(Cl)c2c(=O)n1-c1cccnc1 [Compound 29, (S)-2,4-diamino-6-(1-(5-chloro-8-fluoro-4-oxo-3-(pyridin-3-yl)-3,4-dihydroquinazolin-2-yl)-2-cyclopropylethylamino)pyrimidine-5-carbonitrile] |
| > 10 h | > 10 h | < 1 nM | 0.5 nM | 1 nM | – | – | C[C@H](Nc1nc(N)nc(N)c1C#N)c1nc2c(F)ccc(Cl)c2c(=O)n1-c1cncc(F)c1 [Compound 31, (S)-2,4-diamino-6-(1-(5-chloro-8-fluoro-3-(5-fluoropyridin-3-yl)-4-oxo-3,4-dihydroquinazolin-2-yl)ethylamino)pyrimidine-5-carbonitrile] |
| 3 to 6 h | 4 h | 1 to 10 nM | 7 nM | 6 nM | – | – | Cc1ncc(F)cc1-n1c([C@H](C)Nc2nc(N)nc(N)c2C#N)nc2cccc(Cl)c2c1=O (atropisomer, axis not shown) [Compound 45, (S)-2,4-diamino-6-(1-(5-chloro-3-(5-fluoro-2-methylpyridin-3-yl)-4-oxo-3,4-dihydroquinazolin-2-yl)ethylamino)pyrimidine-5-carbonitrile] |
| > 10 h | > 10 h | < 1 nM | 0.7 nM | 1 nM | – | – | CC[C@H](Nc1nc(N)nc(N)c1C#N)c1nc2c(F)ccc(Cl)c2c(=O)n1-c1cccnc1 [Compound 26, (S)-2,4-diamino-6-(1-(5-chloro-8-fluoro-4-oxo-3-(pyridin-3-yl)-3,4-dihydroquinazolin-2-yl)propylamino)pyrimidine-5-carbonitrile] |
| > 10 h | > 10 h | < 1 nM | 0.4 nM | 2 nM | – | – | Cc1cncc(-n2c([C@H](C)Nc3nc(N)nc(N)c3C#N)nc3c(F)ccc(Cl)c3c2=O)c1 [Compound 32, (S)-2,4-diamino-6-(1-(5-chloro-8-fluoro-3-(5-methylpyridin-3-yl)-4-oxo-3,4-dihydroquinazolin-2-yl)ethylamino)pyrimidine-5-carbonitrile] |
| > 10 h | > 10 h | 1 to 10 nM | 5 nM | 2 nM | – | – | N#Cc1c(N)nc(N)nc1N[C@H](c1nc2c(F)ccc(Cl)c2c(=O)n1-c1cncc(F)c1)C1CC1 [Compound 33, (S)-2,4-diamino-6-((5-chloro-8-fluoro-3-(5-fluoropyridin-3-yl)-4-oxo-3,4-dihydroquinazolin-2-yl)(cyclopropyl)methylamino)pyrimidine-5-carbonitrile] |
| 6 to 10 h | 9 h | 1 to 10 nM | 5 nM | 6 nM | – | – | C[C@H](Nc1nc(N)nc(N)c1C#N)c1nc2c(Cl)cccc2c(=O)n1-c1cccnc1 [Compound 22, (S)-2,4-diamino-6-(1-(8-chloro-4-oxo-3-(pyridin-3-yl)-3,4-dihydroquinazolin-2-yl)ethylamino)pyrimidine-5-carbonitrile] |

The remaining lines, values behind:

| Compound | half-life at 2 μM [1, 2] | half-life at 2 μM [1, 3] | EC50 (basophils; [4]) | EC50 (basophils; [5]) | IC50 (PI3Kδ) | half-life at 2 μM ([1]; comparison Table 4) | EC50 (basophils; basophil activation in human whole blood, comparison Table 4) |
| --- | --- | --- | --- | --- | --- | --- | --- |
| C[C@H](Nc1nc(N)nc(N)c1C#N)c1nc2cccc(C(F)(F)F)c2c(=O)n1-c1cccnc1 [Compound 9, (S)-2,4-diamino-6-(1-(4-oxo-3-(pyridin-3-yl)-5-(trifluoromethyl)-3,4-dihydroquinazolin-2-yl)ethylamino)pyrimidine-5-carbonitrile] | > 10 h | > 10 h | 1 to 10 nM | 3 nM | 2 nM | – | – |
| COc1cncc(-n2c([C@H](C)Nc3nc(N)nc(N)c3C#N)nc3cccc(Cl)c3c2=O)c1 [Compound 14, (S)-2,4-diamino-6-(1-(5-chloro-3-(5-methoxypyridin-3-yl)-4-oxo-3,4-dihydroquinazolin-2-yl)ethylamino)pyrimidine-5-carbonitrile] | 6 to 10 h | 8 h | 1 to 10 nM | 3 nM | 4 nM | – | – |
| N#Cc1c(N)nc(N)nc1N[C@H](c1nc2cccc(Cl)c2c(=O)n1-c1cccnc1)C1CC1 [Compound 3, (S)-2,4-diamino-6-((5-chloro-4-oxo-3-(pyridin-3-yl)-3,4-dihydroquinazolin-2-yl)(cyclopropyl)methylamino)pyrimidine-5-carbonitrile] | > 10 h | > 10 h | 1 to 10 nM | 2 nM | 0.6 nM | – | – |
| C[C@H](Nc1nc(N)nc(N)c1C#N)c1nc2cccc(Cl)c2c(=O)n1-c1cncc(C(F)F)c1 [Compound 15, (S)-2,4-diamino-6-(1-(5-chloro-3-(5-(difluoromethyl)pyridin-3-yl)-4-oxo-3,4-dihydroquinazolin-2-yl)ethylamino)pyrimidine-5-carbonitrile] | > 10 h | > 10 h | 10 to 50 nM | 19 nM | 4 nM | – | – |
| C[C@H](Nc1nc(N)nc(N)c1C#N)c1nc2cccc(Cl)c2c(=O)n1-c1cccnc1 [Compound 1, (S)-2,4-diamino-6-((1-(5-chloro-4-oxo-3-(pyridin-3-yl)-3,4-dihydroquinazolin-2-yl)ethyl)amino)pyrimidine-5-carbonitrile] | > 10 h | > 10 h | < 1 nM | 0.9 nM | 0.6 nM | > 10 h | < 1 nM |
| C[C@H](Nc1nc(N)nc(N)c1C#N)c1nc2cccc(Cl)c2c(=O)n1-c1cncc(F)c1 [Compound 12, (S)-2,4-diamino-6-(1-(5-chloro-3-(5-fluoropyridin-3-yl)-4-oxo-3,4-dihydroquinazolin-2-yl)ethylamino)pyrimidine-5-carbonitrile] | > 10 h | > 10 h | 1 to 10 nM | 1 nM | 2 nM | – | – |
| C[C@H](Nc1nc(N)nc(N)c1C#N)c1nc2ccc(F)cc2c(=O)n1-c1cccnc1 [Compound 5, (S)-2,4-diamino-6-(1-(6-fluoro-4-oxo-3-(pyridin-3-yl)-3,4-dihydroquinazolin-2-yl)ethylamino)pyrimidine-5-carbonitrile] | > 10 h | > 10 h | 1 to 10 nM | 2 nM | 14 nM | – | – |
| Cc1cccc2nc([C@H](C)Nc3nc(N)nc(N)c3C#N)n(-c3cncc(F)c3)c(=O)c12 [Compound 11, (S)-2,4-diamino-6-(1-(3-(5-fluoropyridin-3-yl)-5-methyl-4-oxo-3,4-dihydroquinazolin-2-yl)ethylamino)pyrimidine-5-carbonitrile] | 3 to 6 h | 5 h | < 1 nM | 0.5 nM | 0.8 nM | – | – |
